Key:
[1] = tested on: GFP-labeled human myeloma MM1.S cells; experiment: GFP-labeled MM1.S myeloma cell growth with/without stromal cells, fluorescence microscopy; type: cell-based; settings: 10 μM, 72 hours, FIG. 3
Experimental: FIG. 3 is a graph depicting MM cell growth inhibition. Data is shown as the mean±SD (n=5). *: P<0.01 compared to no-inhibitor cultures without stromal cells. **: P<0.01 compared to no-treatment co-cultured with stromal cells.
Compound 3 was tested for its capacity to block MM-stimulated signaling in marrow stromal cells, thereby resulting in less bone destruction and MM growth. The effects of the compound 3 on GFP-labeled MM1.S myeloma cell growth with/without stromal cells, IL-6 and VCAM-1 expression on stromal cells induced by TNF-α and OCL formation, and TNF-α induced PKCζ phosphorylation, the specific kinase enzyme activated p62-ZZ, were examined. GFP-labeled MM1.S myeloma cells or normal human CFU-GM, a source of OCL precursors, were then co-cultured with human stromal cells with the p62-ZZ inhibitor. The 10 μM of inhibitor compound 3 blocked MM cell growth by 90% compared to vehicle (0.1% DMSO). […] VCAM-1 expression and IL-6 production induced by TNF-α on stromal cells was blocked by 30% and 90% respectively compared to vehicle levels. Furthermore, TNF-α induced PKC, phosphorylation blocked was in stromal cells and MM1.S when pre-treated with this p62-ZZ inhibitory compound for 3 hours.
Primary human bone marrow stromal cells were maintained in 10% FCS-IMDM. Stromal cells (1.5×10^3 cells/well) were cultured one day prior to the start of co-culture. Green fluorescent protein (GFP)-labeled human myeloma MM1.S cells (7.5×10^3 cells/well) were then cultured with/without stromal cells in the presence or absence of the p62-ZZ inhibitors (#1-6) for 72 hours. MM cell growth was determined by fluorescence microscopy.

IL-6 production = experiment: TNF-α induced IL-6 production by marrow stromal cells, ELISA; type: cell-based, human; settings: normal human stromal cells, FIG. 5B
Experimental: FIG. 5A-B: 5A. VCAM-1 expression using Western blot analysis. Normal human stromal cells were cultured with/without TNF and p62-ZZ inhibitors (#1-6) for 48 hours. The cell lysates were collected and VCAM-1 expression was measured using an anti-VCAM-1 antibody (Santa Cruz). FIG. 5B. IL-6 production by human and mouse marrow stromal cells by ELISA. Normal human and mouse marrow stromal cells were cultured with/without TNFα and p62-ZZ inhibitors (#1-6) for 48 hours. The cell culture media were collected and IL-6 production measured using an IL-6 ELISA kit (R &D). Data are shown as the means (n=2).
Normal human or mouse marrow stromal cells were maintained in 10% FBS-IMDM and treated with p62-ZZ inhibitors (#1-6) for 3 hours. Then TNFα or vehicle was added for 48 hours. Cell lysates were collected and VCAM-1 expression measured by Western blot using an anti-VCAM-1 antibody (Santa Cruz). The culture media were collected and IL-6 production was measured using an IL-6 ELISA kit (R&D Company).

Structure (SMILES)	MM cell growth (result in words) [1]	IL-6 production by TNF-α stimulated normal human stromal cells (result in words) (IL-6 production)
OC[C@@H](O)[C@@H](O)[C@H](O)[C@H](O)C(/C=N/Nc1ccccc1)=N/Nc1ccccc1 [Compound 2]	directly blocked MM cell growth	blocked IL-6 production
O=C(O)CNC(=O)c1ccc(NCc2oc(CO)c(CNc3ccc(C(=O)NCC(=O)O)cc3)c(=O)c2O)cc1 [Compound 4]	directly blocked MM cell growth	–
CCOc1ccccc1/C=N/Nc1ccc(S(=O)(=O)c2ccc(N/N=C/c3ccccc3OCC)cc2)cc1 [Compound 5]	–	blocked IL-6 production
